This passage reports inhibition and IC50 results from ChEMBL document CHEMBL6092154, “Design, synthesis, and evaluation of a novel TRAIL-activated HDAC6 inhibitor for the treatment of pulmonary fibrosis” (Bioorg Med Chem, 2024).

In assay [1] the target is Histone deacetylase 1 (Homo sapiens) (UniProt Q13547). Put plainly: Inhibition of HDAC1 (unknown origin) at 1 uM incubated for 30 mins by fluorometric analysis.
Assay [2] deals with T1, Protein deacetylase HDAC6 (Homo sapiens) (UniProt Q9UBN7).
T1 sequence (whole entry): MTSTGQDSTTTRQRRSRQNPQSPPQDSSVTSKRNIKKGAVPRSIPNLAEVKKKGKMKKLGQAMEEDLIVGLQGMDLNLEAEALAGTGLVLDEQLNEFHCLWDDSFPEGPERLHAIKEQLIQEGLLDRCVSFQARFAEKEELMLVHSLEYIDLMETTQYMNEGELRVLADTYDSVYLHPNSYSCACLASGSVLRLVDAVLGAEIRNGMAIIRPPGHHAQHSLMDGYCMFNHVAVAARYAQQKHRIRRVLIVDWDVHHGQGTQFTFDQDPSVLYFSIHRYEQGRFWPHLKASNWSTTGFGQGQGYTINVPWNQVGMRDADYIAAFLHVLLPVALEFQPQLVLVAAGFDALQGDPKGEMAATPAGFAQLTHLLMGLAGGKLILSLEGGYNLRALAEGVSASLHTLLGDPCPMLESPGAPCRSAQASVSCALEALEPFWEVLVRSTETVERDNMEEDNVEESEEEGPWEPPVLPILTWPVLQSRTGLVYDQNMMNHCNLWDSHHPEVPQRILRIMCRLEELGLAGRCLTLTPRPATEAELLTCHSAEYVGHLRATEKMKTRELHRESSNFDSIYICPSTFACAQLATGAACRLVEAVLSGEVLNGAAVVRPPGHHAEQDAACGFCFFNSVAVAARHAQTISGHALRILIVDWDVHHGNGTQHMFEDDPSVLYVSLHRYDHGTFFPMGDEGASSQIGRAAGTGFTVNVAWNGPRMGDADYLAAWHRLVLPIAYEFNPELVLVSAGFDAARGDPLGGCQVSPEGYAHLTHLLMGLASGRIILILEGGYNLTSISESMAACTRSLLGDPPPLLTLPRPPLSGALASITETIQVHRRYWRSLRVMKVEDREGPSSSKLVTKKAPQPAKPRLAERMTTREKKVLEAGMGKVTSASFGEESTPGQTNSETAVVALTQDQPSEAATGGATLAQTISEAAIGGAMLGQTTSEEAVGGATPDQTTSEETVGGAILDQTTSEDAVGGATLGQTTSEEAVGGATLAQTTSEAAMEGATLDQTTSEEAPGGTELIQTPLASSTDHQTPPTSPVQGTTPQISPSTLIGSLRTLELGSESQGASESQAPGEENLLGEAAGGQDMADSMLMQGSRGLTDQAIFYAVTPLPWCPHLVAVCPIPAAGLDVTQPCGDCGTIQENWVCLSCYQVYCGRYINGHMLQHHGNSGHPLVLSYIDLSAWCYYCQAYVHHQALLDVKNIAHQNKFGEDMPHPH
The experiment in a line: Inhibition of HDAC6 (unknown origin) at 1 uM incubated for 30 mins by fluorometric analysis.

Assay [3] deals with T2, Protein deacetylase HDAC6 (Homo sapiens, UniProt Q9UBN7).
T2 sequence (Q9UBN7 whole entry): T1 sequence (whole entry)
Put plainly: Inhibition of HDAC6 (unknown origin) incubated for 30 mins by fluorometric analysis.

The target in a further assay is Histone deacetylase 3 (Homo sapiens, UniProt O15379). Put plainly: Inhibition of HDAC3 (unknown origin) at 1 uM incubated for 30 mins by fluorometric analysis.
A further assay deals with NIH3T3. The experiment in a line: Antiproliferative activity against mouse NIH/3T3 cells assessed as inhibition of cell growth incubated for 24 to 48 hrs by CCK8 assay. The assay is classed as functional, cell-based. On the technique in general: Tetrazolium assays rely on reduction of a dye to a coloured formazan, in cell work by metabolically active cells.
The next assay concerns Fibroblast. The experiment in a line: Antiproliferative activity against human primary fibroblasts assessed as inhibition of cell growth incubated for 24 to 48 hrs by CCK8 assay. The assay is classed as functional, cell-based.
Another assay relates to RPMI-8226. The experiment in a line: Antiproliferative activity against human RPMI-8226 cells assessed as inhibition of cell growth incubated for 24 to 48 hrs by CCK8 assay. The assay is classed as functional, cell-based.
In assay [4] the target is T3, Histone deacetylase 8 (Homo sapiens) (UniProt Q9BY41).
T3 sequence (whole entry): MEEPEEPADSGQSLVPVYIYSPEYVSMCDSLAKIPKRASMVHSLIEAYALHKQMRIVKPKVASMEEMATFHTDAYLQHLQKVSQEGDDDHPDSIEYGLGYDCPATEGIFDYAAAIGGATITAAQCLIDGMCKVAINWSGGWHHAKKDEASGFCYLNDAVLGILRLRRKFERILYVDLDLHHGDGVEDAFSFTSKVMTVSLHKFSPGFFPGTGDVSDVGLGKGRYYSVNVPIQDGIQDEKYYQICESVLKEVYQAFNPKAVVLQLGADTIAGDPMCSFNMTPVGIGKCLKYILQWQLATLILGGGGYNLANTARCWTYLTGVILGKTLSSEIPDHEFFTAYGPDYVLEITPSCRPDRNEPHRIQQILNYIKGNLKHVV
Put plainly: Inhibition of HDAC8 (unknown origin) at 1 uM incubated for 30 mins by fluorometric analysis.

The next assay deals with Histone deacetylase 2 (Homo sapiens, UniProt Q92769). The experiment in a line: Inhibition of HDAC2 (unknown origin) at 1 uM incubated for 30 mins by fluorometric analysis.

Each structure is given as a SMILES string.

Chain of Histone deacetylase 2 (Q92769 whole entry): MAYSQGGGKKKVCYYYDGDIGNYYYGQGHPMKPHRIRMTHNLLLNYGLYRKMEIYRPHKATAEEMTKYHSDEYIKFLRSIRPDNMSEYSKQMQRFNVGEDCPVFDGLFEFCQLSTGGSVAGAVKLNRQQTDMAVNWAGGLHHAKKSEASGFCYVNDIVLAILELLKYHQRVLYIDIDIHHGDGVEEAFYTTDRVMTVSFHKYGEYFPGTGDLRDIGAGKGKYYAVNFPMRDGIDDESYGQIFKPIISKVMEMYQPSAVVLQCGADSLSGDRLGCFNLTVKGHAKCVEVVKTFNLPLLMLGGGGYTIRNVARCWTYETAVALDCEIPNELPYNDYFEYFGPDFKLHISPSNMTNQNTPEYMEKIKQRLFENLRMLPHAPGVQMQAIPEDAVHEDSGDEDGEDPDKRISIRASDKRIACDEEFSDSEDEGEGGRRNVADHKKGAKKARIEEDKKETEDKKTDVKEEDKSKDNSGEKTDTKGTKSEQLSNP
Chain of Histone deacetylase 1 (Homo sapiens) (Q13547 whole entry): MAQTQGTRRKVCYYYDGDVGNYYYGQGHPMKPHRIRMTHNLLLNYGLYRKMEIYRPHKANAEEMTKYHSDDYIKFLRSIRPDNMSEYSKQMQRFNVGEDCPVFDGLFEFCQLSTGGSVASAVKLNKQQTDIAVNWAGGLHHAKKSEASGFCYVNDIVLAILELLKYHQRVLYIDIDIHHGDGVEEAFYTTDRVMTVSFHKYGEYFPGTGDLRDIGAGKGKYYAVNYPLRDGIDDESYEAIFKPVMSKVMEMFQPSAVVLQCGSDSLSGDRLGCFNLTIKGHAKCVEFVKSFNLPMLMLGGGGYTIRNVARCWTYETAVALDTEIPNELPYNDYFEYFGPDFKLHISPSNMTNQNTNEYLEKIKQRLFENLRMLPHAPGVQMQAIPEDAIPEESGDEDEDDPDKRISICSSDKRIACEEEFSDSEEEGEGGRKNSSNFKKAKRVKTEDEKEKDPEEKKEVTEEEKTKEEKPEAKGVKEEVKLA
Chain of Histone deacetylase 3 (O15379 whole entry): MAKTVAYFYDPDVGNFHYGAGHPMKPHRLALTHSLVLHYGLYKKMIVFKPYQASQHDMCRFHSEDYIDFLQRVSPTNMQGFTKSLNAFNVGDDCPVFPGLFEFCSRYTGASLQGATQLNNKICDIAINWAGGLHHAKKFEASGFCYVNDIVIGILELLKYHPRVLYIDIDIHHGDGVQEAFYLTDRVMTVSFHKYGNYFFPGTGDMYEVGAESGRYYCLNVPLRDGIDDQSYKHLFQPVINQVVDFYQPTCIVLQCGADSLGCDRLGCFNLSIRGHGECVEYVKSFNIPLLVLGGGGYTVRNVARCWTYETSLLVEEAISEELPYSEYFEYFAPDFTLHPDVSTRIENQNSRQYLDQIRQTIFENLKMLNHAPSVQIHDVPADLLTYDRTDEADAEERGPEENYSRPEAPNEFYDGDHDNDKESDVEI

Usually inhibition stands for the share of the control response that was lost under treatment. The low end stands for a response near the control, the high end for a response far below the control. Broadly, the IC50 is the point on the concentration scale where inhibition reaches its midpoint. `Cc1ccccc1CN1CCC2=C(C1)C(=O)N(Cc1ccc(C(=O)NO)cc1)C1=NCCN12`: the inhibition in assay [1] worked out at 32.4%; in assay [2], 94.7%; against Histone deacetylase 3, 51.2%; in assay [4], 69.8%; at Histone deacetylase 2, 60.5%. In addition, the concentration for half-maximal inhibition (IC50) worked out at 48 nM in assay [3], 5900 nM with NIH3T3, 59200 nM with Fibroblast and 10700 nM with RPMI-8226.

Consider `COc1cccc(CN2CCC3=C(C2)C(=O)N(Cc2ccc(C(=O)NO)cc2)C2=NCCN23)c1`, for which the inhibition stood at 59.3% in assay [1]; 95.4% in [2]; 52.3% against Histone deacetylase 3; 72.2% in assay [4]; 57.6% against Histone deacetylase 2. Also, the IC50 in assay [3] was 104 nM; in the assay with NIH3T3, 11400 nM; in the assay on Fibroblast it was 55200 nM; in the assay with RPMI-8226 it was 100 nM.

`O=C(NO)c1ccc(CN2C(=O)C3=C(CCN(Cc4ccccc4)C3)N3CCN=C23)cc1`: the inhibition in [1] amounted to 68.3%; in assay [2] it was 97.2%; against Histone deacetylase 3, 51.9%; in assay [4], 72.8%; against Histone deacetylase 2 it was 56.8%. The IC50 in assay [3] was determined as 65.4 nM; in the assay on NIH3T3, 1000 nM; in the assay with Fibroblast it was 30600 nM; in the assay with RPMI-8226 it was 620 nM.

`Cc1cccc(CN2CCC3=C(C2)C(=O)N(Cc2ccc(C(=O)NO)cc2)C2=NCCN23)c1`: the inhibition was 44.7% in [1]; 93.8% in assay [2]; 50.6% on Histone deacetylase 3; 74.9% in [4]; 61.7% against Histone deacetylase 2. The IC50 in assay [3] was 54.8 nM; in the assay on NIH3T3, 90 nM; in the assay on Fibroblast, 50700 nM; in the assay with RPMI-8226 it was 1060 nM.

As to `O=C(NO)c1ccc(CN2C(=O)C3=C(CCN(Cc4cccc(F)c4)C3)N3CCN=C23)cc1`, the inhibition in assay [1] was 47.9%; in assay [2], 97.1%; against Histone deacetylase 3, 56.4%; in assay [4] it was 75%; against Histone deacetylase 2, 61.9%. Besides, the IC50 in [3] amounted to 64.4 nM; with NIH3T3, 6510 nM; in the assay on Fibroblast, 26700 nM; in the assay on RPMI-8226 it was 1580 nM.

Consider `O=C(NO)c1ccc(CN2C(=O)C3=C(CCN(Cc4ccc(Cl)c(C(F)(F)F)c4)C3)N3CCN=C23)cc1`, for which the inhibition in assay [1] came to 27.2%; in assay [2], 96.2%; against Histone deacetylase 3 it was 43.8%; in [4] it was 48.2%; at Histone deacetylase 2 it was 62.7%. For the same compound, the IC50 in assay [3] was 36.8 nM; in the assay on NIH3T3, 9880 nM; with Fibroblast it was 45300 nM; with RPMI-8226, 1080 nM.

As for `O=C(NO)c1ccc(CN2C(=O)C3=C(CCN(Cc4cccc(Br)c4)C3)N3CCN=C23)cc1`, the inhibition in assay [1] amounted to 36.4%; in assay [2], 93.6%; on Histone deacetylase 3, 56.6%; in [4], 76%; against Histone deacetylase 2 it was 63.9%. In addition, the IC50 was 31.5 nM in assay [3], 100 nM with NIH3T3, 47400 nM in the assay with Fibroblast and 1860 nM in the assay with RPMI-8226.

On to `O=C(CCCCCCNC(=O)c1cnc(N(c2ccccc2)c2ccccc2)nc1)NO` [RICOLINOSTAT], for which the inhibition in assay [2] was found to be 98.5%. For the same compound, the half-maximal inhibitory concentration (IC50) with NIH3T3 was found to be 3530 nM; in the assay on Fibroblast it was 35100 nM; in the assay on RPMI-8226, 850 nM.

For `O=C(NO)c1ccc(CN2C(=O)C3=C(CCN(Cc4cccc(C(F)(F)F)c4Cl)C3)N3CCN=C23)cc1`, the inhibition came out at 18.3% in [1]; 94.1% in assay [2]; 52.7% against Histone deacetylase 3; 31% in assay [4]; 60.8% against Histone deacetylase 2. The IC50 in [3] worked out at 60.1 nM; in the assay with NIH3T3, 6710 nM; in the assay on Fibroblast, 111000 nM; in the assay on RPMI-8226, 49400 nM.

Turning to `Cc1ccc(CN2CCC3=C(C2)C(=O)N(Cc2ccc(C(=O)NO)cc2)C2=NCCN23)cc1`, the inhibition was determined as 31.8% in assay [1]; 91.3% in assay [2]; 53.1% against Histone deacetylase 3; 63.6% in [4]; 58.4% at Histone deacetylase 2. The half-maximal inhibitory concentration (IC50) in assay [3] was 50.9 nM; with NIH3T3, 1630 nM; in the assay on Fibroblast, 136000 nM; in the assay with RPMI-8226, 13300 nM.

As for `O=C(NO)c1ccc(CN2C(=O)C3=C(CCN(Cc4cccnc4)C3)N3CCN=C23)cc1`, the inhibition in [1] was 9.3%; in assay [2], 95.1%; on Histone deacetylase 3, 36.2%; in assay [4] it was 66.4%; against Histone deacetylase 2, 46.3%. In addition, the IC50 was 137 nM in assay [3], 8400 nM with NIH3T3, 4580 nM with Fibroblast and 2880 nM with RPMI-8226.
